From the OligoGym collection
After the bases stand the sugars from the 5' end (letter, count) and the backbone: PS all phosphorothioate, else s phosphorothioate and o phosphodiester by linkage. Methylation of C is not given here. e = 2'-O-(2-methoxyethyl) (MOE); k = constrained ethyl (cEt); d = 2'-deoxy (DNA); m = 2'-O-methyl

Biological target: HSD17B13
Settings: ASO, HepaRG

| Sequence | target mRNA inhibition (1 µM) | other results |
| --- | --- | --- |
| GGTTGAGATAAAGCTG (sugars kkdddddddddkekek, PS) | 60% |  |
| GTAAACTAAAGTACTT (sugars k3 d10 k3, PS) | 0% |  |
| GTAAACTGTATGCCTC (sugars k3 d10 k3, PS) | 74% | target mRNA inhibition (0.02 µM): 5%; target mRNA inhibition (0.078 µM): 30%; target mRNA inhibition (0.313 µM): 43%; target mRNA inhibition (1.25 µM): 78%; target mRNA inhibition (5 µM): 86% |
| GTAAAGTTTGTTAGAG (sugars k3 d10 k3, PS) | 54% |  |
| GTAACGGTGATCAAAT (sugars k3 d1 m1 d8 k3, PS) | 21% |  |
| GTAACGGTGATCAAAT (sugars k3 d9 k3 e1, PS) | 32% |  |
| GTAAGAGTCAGTATCC (sugars k3 d10 k3, PS) | 47% |  |
| GTAATCACAAGTAAGG (sugars kkdddddddddkekek, PS) | 72% | target mRNA inhibition (0.02 µM): 0%; target mRNA inhibition (0.078 µM): 2%; target mRNA inhibition (0.313 µM): 35%; target mRNA inhibition (1.25 µM): 49%; target mRNA inhibition (5 µM): 70% |
| GTAATGGTAAACTGTA (sugars k3 d10 k3, PS) | 70% |  |
| GTAATTAATCTTGTTC (sugars k3 d10 k3, PS) | 52% |  |
| GTAATTACTTCTGATG (sugars k3 d10 k3, PS) | 41% |  |
| GTAATTCTAAACTAGT (sugars k3 d10 k3, PS) | 39% |  |
| GTAATTGCATCTGCTC (sugars k3 d10 k3, PS) | 51% |  |
| GTAATTTTCAGATCCC (sugars k3 d10 k3, PS) | 82% | target mRNA inhibition (0.02 µM): 24%; target mRNA inhibition (0.078 µM): 43%; target mRNA inhibition (0.313 µM): 69%; target mRNA inhibition (1.25 µM): 88%; target mRNA inhibition (5 µM): 88% |
| GTAAUCACAAGTAAGG (sugars k3 d1 m1 d8 k3, PS) | 20% |  |
| GTACACGAAGCCTGAA (sugars k3 d10 k3, PS) | 42% |  |
| GTAGATGGTAAGTCAA (sugars k3 d10 k3, PS) | 86% | target mRNA inhibition (0.02 µM): 20%; target mRNA inhibition (0.078 µM): 35%; target mRNA inhibition (0.313 µM): 55%; target mRNA inhibition (1.25 µM): 84%; target mRNA inhibition (5 µM): 88% |
| GTAGTCTGCCTGCCTA (sugars k3 d10 k3, PS) | 68% |  |
| GTATAGTTATCTTCTC (sugars kkdddddddddkekek, PS) | 49% |  |
| GTATCTTAAGAGAAGG (sugars k3 d10 k3, PS) | 30% |  |
| GTATTGAGATGACAGT (sugars k3 d10 k3, PS) | 68% | target mRNA inhibition (0.02 µM): 0%; target mRNA inhibition (0.078 µM): 0%; target mRNA inhibition (0.313 µM): 3%; target mRNA inhibition (1.25 µM): 47%; target mRNA inhibition (5 µM): 73% |
| GTATTTGAGATTCACC (sugars k3 d10 k3, PS) | 41% |  |
| GTATTTGGGTGTTCTG (sugars k3 d10 k3, PS) | 36% |  |
| GTCACCTTTCATAATG (sugars k3 d1 m1 d8 k3, PS) | 40% |  |

| Sequence | target mRNA inhibition (1 µM) | other results |
| --- | --- | --- |
| GTCAGACCTCTGTGAA (sugars k3 d10 k3, PS) | 34% |  |
| GTCATAAAGGTGGGAT (sugars k3 d10 k3, PS) | 28% |  |
| GTCCACCTTTAAATGG (sugars k3 d10 k3, PS) | 33% |  |
| GTCCATGCAAAAGCAT (sugars k3 d10 k3, PS) | 62% |  |
| GTCGGTCACCTTTCAT (sugars kkdddddddddkekek, PS) | 57% |  |
| GTCTAAACATCTCTGG (sugars k3 d1 m1 d8 k3, PS) | 47% |  |
| GTCTAAATTATTGCCT (sugars k3 d10 k3, PS) | 45% |  |
| GTCTACCTCTAAGTTA (sugars k3 d10 k3, PS) | 3% |  |
| GTCTCCAATACAGGCC (sugars k3 d10 k3, PS) | 47% |  |
| GTCTTAAACCTTCCCT (sugars k3 d10 k3, PS) | 63% |  |
| GTCTTAAACCTTCCCT (sugars kkdddddddddkekek, PS) | 28% |  |
| GTCTUGATGTAGTGGG (sugars k3 d1 m1 d8 k3, PS) | 63% |  |
| GTGAAAGCCAACAGCG (sugars k3 d10 k3, PS) | 62% |  |
| GTGAACCCAGTATTCA (sugars k3 d10 k3, PS) | 1% |  |
| GTGCATCTTAAGATAC (sugars k3 d10 k3, PS) | 47% |  |
| GTGCCAAACCAATGTT (sugars k3 d1 m1 d8 k3, PS) | 30% |  |
| GTGGCATGGCTACAGA (sugars k3 d10 k3, PS) | 56% |  |
| GTGGCATGGCTACAGA (sugars kkdddddddddkekek, PS) | 59% |  |
| GTGGGAGTCGGATTAT (sugars k3 d10 k3, PS) | 37% |  |
| GTGTAAGCTGAGAGTT (sugars k3 d1 m1 d8 k3, PS) | 55% |  |
| GTGTAAGCTGAGAGTT (sugars k3 d9 k3 e1, PS) | 45% |  |
| GTGTAAGCTGAGAGTT (sugars k3 d10 k3, PS) | 60% |  |
| GTGTAGAATTGTCTGT (sugars k3 d10 k3, PS) | 42% |  |
